Patent US20150258197A1, “EUTECTIC ISOMETHEPTENE MUCATE” (TONIX PHARMA HOLDINGS LIMITED, priority 2014, published 2015)

How the values were obtained:
[1] = system: Spontaneous trigeminal allodynia (STA) rats; experiment: Tactile sensory testing with von Frey monofilaments in STA rats; assay type: in vivo, rat; details: injected, versus (S)-isometheptene mucate treated or control rats
Description: Pain, headaches, and migraines have been modeled in animals such as mice and rats. For example, Oshinsky et al. (Oshinsky, M. L., et al., Spontaneous Trigeminal Allodynia in Rats: A Model of Primary Headache, 2012, 52: 1336-1349) describes spontaneous trigeminal allodynia (STA) rats with the inherited trait of spontaneously changing trigeminal von Frey thresholds. These rats are a model of spontaneous headache and can be used as a model of primary headache. Through a series of tactile sensory tests, the periorbital, hind-paw, and jaw-pressure thresholds for STA rats are determined by applying von Frey monofilaments. […] Analgesic activity of the compositions described herein can be evaluated by determining trigeminal von Frey thresholds in STA rats. […]
STA rats and litter mates without the trait were injected with compounds selected from (R)-isometheptene mucate and (5)-isometheptene mucate on days when their thresholds in spontaneous allodynia rats were 4 g or below for STA rats. […] Tactile sensory thresholds were recorded prior to and following injections at 0.5 hours, 1.5 hours, 2.5 hours, 3.5 hours, and 24 hours. […]
Periorbital, hind-paw, and jaw-pressure thresholds were determined by applying von Frey monofilaments (Stoelting Co., Wood Dale, Ill., USA). […] Left and right threshold data were recorded separately. […]

mice = experiment: Hot Plate Test; assay type: in vivo; details: mouse, hot plate 54° C., 10, 30 and 100 mg/kg p.o. 15 minutes before the test
Description: Common mouse models for pain include the Formalin Test (Wheeler-Aceto, et al., Psychopharmacology, 104, 35-44, 1991), the Hot Plate Test (Eddy and Leimbach, J. Pharmacol. Exp. Ther., 107, 385-393, 1953), and the Tail-flick Test (D'Amour and Smith, J. Pharmacol. Exp. Ther., 1, 74-79, 1941). These methods detect analgesic activity of compositions of interest. In the Formalin Test, mice are given an intraplantar injection of 5% formalin into one posterior hindpaw to induce paw licking. Test compositions are given to the mice before treatment with formalin and the mice are evaluated and compared to a control group. In the Hot Plate Test, mice are placed onto a hot metal plate maintained at 54° C. and the latency to the first foot-lick is measured. As with the Formalin test, compositions of interest are given to the mice before the test and the mice are evaluated and compared to a control group. In the Tail-flick Test, a mouse's tail is heated by means of a thermal light source, and the latency before the animal withdraws its tail is measured. […]
Mice were placed onto a hot metal plate maintained at 54° C. surrounded by a Plexiglas cylinder (height: 13 cm; diameter: 19 cm). The latency to the first foot-lick was measured (maximum: 30 seconds). […]
Data with the test substance were analyzed by comparing treated groups with vehicle control using ANOVA followed by post-hoc Dunnett's tests. […]

SMILES: CN[C@H](C)CCC=C(C)C [(R)-isometheptene mucate]
- Tactile sensory (von Frey) threshold values [1]: dramatic increase in threshold values
- Foot-licking latency compared to vehicle (mice): longer foot-licking latency times
